The target of the series is P-glycoprotein 1 and 3 (MDR1a/MDR1b) (Mus musculus, UniProt P21447+P06795). In words: TP_TRANSPORTER: increase in brain concentration in mdr1a/1b(-/-) mouse. The settings on record: in vivo. The format is functional, organism-based.

Take `COc1ccc(N(C)S(C)(=O)=O)cc1CN[C@H]1CCCN[C@H]1c1ccccc1`: the Activity result is “substrate [+]”.

Values taken from ChEMBL document CHEMBL2074263, “P-glycoprotein efflux at the blood-brain barrier mediates differences in brain disposition and pharmacodynamics between two structurally related neurokinin-1 receptor antagonists” (J Pharmacol Exp Ther, 2001).
